Laboratory results reported in ChEMBL document CHEMBL5518227, “Discovery of JNJ-1802, a First-in-Class Pan-Serotype Dengue Virus NS4B Inhibitor” (J Med Chem, 2024).

Columns and labels:
[1] = Clearance in Sprague-Dawley rat assessed as liver blood flow at 2.5 mg/kg, iv measured after 24 hrs by LC-MS/MS analysis; type: ADME, organism-based; conditions: in vivo
[2] = test system: dengue virus type 1; experiment: Antiviral activity against DENV-1 TC974#666 infected in african green monkey Vero cells incubated for 24 hrs measured after 3 days post infection by RT-PCR analysis; type: functional, organism-based; conditions: Dengue virus, TC974#666, Vero; read-out: EC50
[3] = Clearance in 8 hrs fasted cynomolgus monkey at 1 mg/kg, iv measured upto 24 hrs by LC-MS/MS analysis; type: ADME, organism-based, Macaca fascicularis; conditions: in vivo
[4] = test system: dengue virus type 2; experiment: Antiviral activity against DENV-2 16681 expressing eGFP infected in african green monkey Vero cells incubated with cells for 24 hrs followed by viral infection measured after 3 days by laser microscopic analysis; type: functional, organism-based; conditions: Dengue virus, 16681, Vero
[5] = Cmax in 8 hrs fasted cynomolgus monkey assessed as liver blood flow at 3 mg/kg, po measured upto 24 hrs by LC-MS/MS analysis; type: ADME, organism-based, Macaca fascicularis; conditions: in vivo
[6] = Mutagenicity in Salmonella typhimurium TA7001 in presence or absence of S9 fraction pretreated for 90 mins measured after 48 hrs in dark by AMES test; type: toxicity; conditions: salmonella enterica subsp. enterica serovar typhimurium, s9, 49.5 h; time 2970 min
[7] = Chromatographic hydrophobicity index, log D of the compound at pH 7.4 by LC/MS analysis; type: physicochemical; conditions: buffer
[8] = target: Cytochrome P450 2C9 (Homo sapiens, UniProt P11712); experiment: Inhibition of human CYP2C9 preincubated for 5 mins followed by NADPH addition measured after 5 to 30 mins by LC-MS analysis; type: ADME
Cytochrome P450 2C9, sequence (P11712 whole entry): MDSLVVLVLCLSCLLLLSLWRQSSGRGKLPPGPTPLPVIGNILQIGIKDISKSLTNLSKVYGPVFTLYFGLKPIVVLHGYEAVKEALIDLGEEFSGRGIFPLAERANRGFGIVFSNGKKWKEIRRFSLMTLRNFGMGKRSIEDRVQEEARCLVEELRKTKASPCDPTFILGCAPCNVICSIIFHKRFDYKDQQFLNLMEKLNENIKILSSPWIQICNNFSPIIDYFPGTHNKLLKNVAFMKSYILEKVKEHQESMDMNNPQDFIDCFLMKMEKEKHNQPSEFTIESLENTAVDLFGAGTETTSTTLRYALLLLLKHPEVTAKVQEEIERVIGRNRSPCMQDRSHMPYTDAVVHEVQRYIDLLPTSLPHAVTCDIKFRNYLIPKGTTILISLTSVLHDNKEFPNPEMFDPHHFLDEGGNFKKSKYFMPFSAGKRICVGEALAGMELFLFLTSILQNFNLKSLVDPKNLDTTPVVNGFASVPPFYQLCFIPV

[9] = Elimination half life in 8 hrs fasted cynomolgus monkey assessed as liver blood flow at 1 mg/kg, iv measured upto 24 hrs by LC-MS/MS analysis; type: ADME, organism-based, Macaca fascicularis; conditions: in vivo, read-out: beta t1/2 (converted)
[10] = Volume of distribution at steady state in overnight fasted Beagle dog at 0.51 mg/kg, iv measured upto 24 hrs by LC-MS/MS analysis; type: ADME, organism-based, Canis lupus familiaris; conditions: in vivo, read-out: Vdss
[11] = Cytotoxicity against african green monkey Vero cells by ATPlite cell viability luminescence assay; type: toxicity, cell-based; conditions: chlorocebus sabaeus
[12] = Cmax in CD-1 mouse at 10 mg/kg, po measured upto 24 hrs by LC-MS/MS analysis; type: ADME, organism-based; conditions: in vivo
[13] = AUC in overnight fasted Beagle dog at 2.37 mg/kg, po measured upto 24 hrs by LC-MS/MS analysis; type: ADME, organism-based, Canis lupus familiaris; conditions: in vivo
[14] = Metabolic stability in dog hepatocytes assessed as intrinsic clearance measured per million cells incubated upto 120 mins by LC-MS/MS analysis; type: ADME, cell-based, Canis lupus familiaris, Hepatocyte; conditions: read-out: CLH
[15] = Oral bioavailability in Sprague-Dawley rat at 10 mg/kg measured after 24 to 48 hrs by LC-MS/MS analysis; type: ADME, organism-based; conditions: in vivo, time 24-48 hrs
[16] = Thermodynamic solubility of the compound in aqueous buffer at pH 7.4 measured after 24 hrs by UPLC analysis; type: physicochemical; conditions: read-out: Therm_solubility
[17] = Volume of distribution at steady state in CD-1 mouse at 2.5 mg/kg, iv measured upto 24 hrs by LC-MS/MS analysis; type: ADME, organism-based; conditions: in vivo, read-out: Vdss
[18] = target: Voltage-gated inwardly rectifying potassium channel KCNH2 (Homo sapiens, UniProt Q12809); experiment: Inhibition of human ERG stably expressed in CHO cells by automated Qpatch electrophysiological assay; type: toxicity, cell-based
Voltage-gated inwardly rectifying potassium channel KCNH2, sequence (Q12809 whole entry): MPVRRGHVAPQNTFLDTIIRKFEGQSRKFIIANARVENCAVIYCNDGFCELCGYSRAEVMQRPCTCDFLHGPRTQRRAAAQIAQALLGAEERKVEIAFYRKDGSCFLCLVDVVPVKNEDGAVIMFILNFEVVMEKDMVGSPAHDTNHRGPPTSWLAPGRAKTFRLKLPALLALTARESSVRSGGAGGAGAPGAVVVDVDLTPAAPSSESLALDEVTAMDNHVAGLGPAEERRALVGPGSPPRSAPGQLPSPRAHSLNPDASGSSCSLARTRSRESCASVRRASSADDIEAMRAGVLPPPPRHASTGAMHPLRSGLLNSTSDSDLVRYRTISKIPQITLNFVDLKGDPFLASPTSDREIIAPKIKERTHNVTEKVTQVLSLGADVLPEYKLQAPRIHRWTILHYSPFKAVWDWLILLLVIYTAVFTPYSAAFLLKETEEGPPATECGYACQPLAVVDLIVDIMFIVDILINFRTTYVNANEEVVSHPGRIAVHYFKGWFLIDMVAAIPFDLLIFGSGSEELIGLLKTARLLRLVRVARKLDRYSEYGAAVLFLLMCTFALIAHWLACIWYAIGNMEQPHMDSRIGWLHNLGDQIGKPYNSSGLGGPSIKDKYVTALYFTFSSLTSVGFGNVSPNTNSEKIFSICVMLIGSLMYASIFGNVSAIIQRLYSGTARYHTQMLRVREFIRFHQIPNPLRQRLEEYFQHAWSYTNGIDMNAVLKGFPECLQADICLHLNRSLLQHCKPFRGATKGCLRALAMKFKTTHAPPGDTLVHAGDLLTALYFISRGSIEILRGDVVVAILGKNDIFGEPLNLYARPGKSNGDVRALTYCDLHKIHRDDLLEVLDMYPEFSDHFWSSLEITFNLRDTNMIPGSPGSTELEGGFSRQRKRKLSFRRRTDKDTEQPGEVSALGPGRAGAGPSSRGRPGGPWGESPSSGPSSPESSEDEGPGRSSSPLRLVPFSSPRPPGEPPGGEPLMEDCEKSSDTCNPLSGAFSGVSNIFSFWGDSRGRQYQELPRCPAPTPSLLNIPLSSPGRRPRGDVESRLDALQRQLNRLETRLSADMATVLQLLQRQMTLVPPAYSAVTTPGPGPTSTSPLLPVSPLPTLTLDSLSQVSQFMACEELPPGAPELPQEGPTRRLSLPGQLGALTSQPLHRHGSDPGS

[19] = test system: dengue virus type 3; experiment: Antiviral activity against DENV-3 H87 infected in african green monkey Vero cells incubated for 24 hrs measured after 3 days post infection by RT-PCR analysis; type: functional, organism-based; conditions: Dengue virus, H87, Vero; read-out: EC50
[20] = Clearance in overnight fasted Beagle dog at 0.51 mg/kg, iv measured upto 24 hrs by LC-MS/MS analysis; type: ADME, organism-based, Canis lupus familiaris; conditions: in vivo
[21] = Oral bioavailability in CD-1 mouse at 10 mg/kg measured upto 24 hrs by LC-MS/MS analysis; type: ADME, organism-based; conditions: in vivo
[22] = Elimination half life in overnight fasted Beagle dog at 0.51 mg/kg, iv measured upto 24 hrs by LC-MS/MS analysis; type: ADME, organism-based, Canis lupus familiaris; conditions: in vivo, read-out: beta t1/2 (converted)
[23] = Volume of distribution at steady state in Sprague-Dawley rat at 2.5 mg/kg, iv measured after 24 hrs by LC-MS/MS analysis; type: ADME, organism-based; conditions: in vivo, read-out: Vdss
[24] = target: T1, Cytochrome P450 1A2 (Homo sapiens, UniProt P05177); experiment: Inhibition of human CYP1A2 preincubated for 5 mins followed by NADPH addition measured after 5 to 30 mins by LC-MS analysis; type: ADME
T1 sequence (P05177 whole entry): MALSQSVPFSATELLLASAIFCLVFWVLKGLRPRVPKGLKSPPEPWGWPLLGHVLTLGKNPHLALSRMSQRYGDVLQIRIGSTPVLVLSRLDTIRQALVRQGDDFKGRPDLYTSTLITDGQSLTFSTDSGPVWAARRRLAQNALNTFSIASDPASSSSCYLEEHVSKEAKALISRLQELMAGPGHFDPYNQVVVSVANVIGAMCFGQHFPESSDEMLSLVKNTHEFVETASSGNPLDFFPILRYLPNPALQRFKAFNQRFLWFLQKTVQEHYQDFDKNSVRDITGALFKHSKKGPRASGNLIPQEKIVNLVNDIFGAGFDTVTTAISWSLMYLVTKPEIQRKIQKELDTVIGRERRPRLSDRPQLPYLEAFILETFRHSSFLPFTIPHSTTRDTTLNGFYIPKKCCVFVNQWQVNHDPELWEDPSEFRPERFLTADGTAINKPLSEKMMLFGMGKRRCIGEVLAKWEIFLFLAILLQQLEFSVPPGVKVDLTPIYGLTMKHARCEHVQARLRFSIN

[25] = Plasma protein binding in human at 5 uM measured after 24 hrs by LC-MS/MS analysis; type: ADME, cell-free; conditions: read-out: PPB (converted)
[26] = Elimination half life in Sprague-Dawley rat at 2.5 mg/kg, iv measured after 24 hrs by LC-MS/MS analysis; type: ADME, organism-based; conditions: in vivo, read-out: beta t1/2 (converted)

- LBF [1]: 7%
- EC50 [2]: 0.2 nM
- clearance [3]: 2.45 mL/min/kg
- EC50 [4]: 0.057 nM
- Cmax [5]: 613 ng/mL
- Chromatographic log D at pH 7.4 [7]: 3.94
- IC50 [8]: 3700 nM
- half-life [9]: 9.57 h
- Vd [10]: 3.1 L/kg
- Cmax [12]: 2730 ng/mL
- AUC at 24 h [13]: 2940 ng·h/mL
- hepatocyte CLint [14]: 5.7 µL/min/1e6 cells
- bioavailability [15]: 58%
- solubility thermodynamic at 24 h [16]: < 1 µg/mL
- Vd [17]: 2.5 L/kg
- EC50 [19]: 2 nM
- clearance [20]: 6.4 mL/min/kg
- bioavailability [21]: 108%
- half-life [22]: 7.3 h
- Vd [23]: 4.6 L/kg
- IC50 [24]: > 30000 nM
- fraction unbound at 24 h, 5 µM [25]: 0.0014
- half-life [26]: 12.4 h
SMILES: COc1cc(N[C@H](C(=O)c2c[nH]c3ccc(OC(F)(F)F)cc23)c2ccc(Cl)cc2OC)cc(S(C)(=O)=O)c1 [MOSNODENVIR]
- Activity [6]: Non-Toxic
- CC50 [11]: 2600 nM
- IC50 [18]: > 30000 nM
